# Experimental data from PubChem BioAssay AID1963431 (Molecular Pharmacology Branch, DTP, NCI, 2024).
# pIC50: −log10 of the molar value.
# Test system: Rh18 complex spheroid viability, percent test/control
# Test: Anticancer human tumor Rh18 cell line growth inhibition [Asc];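 also: spheroids exposed to compound for 7 days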;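 as to viability, T/C: 100% = DMSO vehicle control wells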
# Settings: for pIC50: curve of first compound; for viability, T/C: stronger effect = lower value
# How it was run: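 Tumor cells were grown as multicellular spheroids with stromal HUVEC and mesenchymal stem cells and treated singly or in combination. Concentrations fell in half-log steps from the clinical Cmax, or from 10 microM where none was known.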
compound,measurement,setting,value
C=C(F)C(=O)N1CCN(c2nc(OCC3CCCN3C)nc3c2CCN(c2cccc4cccc(Cl)c24)C3)CC1CC#N (stereo not given) + CNC(C)C(=O)NC1CN(S(=O)(=O)c2cccc(S(=O)(=O)N3CCC4CCC(C(=O)NC(c5ccccc5)c5ccccc5)N4C(=O)C(NC(=O)C(C)NC)C3)c2)CCC2CCC(C(=O)NC(c3ccccc3)c3ccccc3)N2C1=O,pIC50,second compound 0.01 µM,6.32
same,pIC50,second compound 0.0316 µM,6.82
same,pIC50,second compound 0.1 µM,> 7.50
same,pIC50,second compound 0.316 µM,> 7.50
same,pIC50,second compound 1 µM,> 7.50
same,"viability, T/C","second compound 0.01 µM, first compound 0.0316 µM",71%
same,"viability, T/C","second compound 0.01 µM, first compound 0.1 µM",70.1%
same,"viability, T/C","second compound 0.01 µM, first compound 0.316 µM",53.5%
same,"viability, T/C","second compound 0.01 µM, first compound 1 µM",40.7%
same,"viability, T/C","second compound 0.01 µM, first compound 3.16 µM",16.2%
same,"viability, T/C","second compound 0.01 µM, first compound 10 µM",0.19%
same,"viability, T/C","second compound 0.0316 µM, first compound 0.0316 µM",46.5%
same,"viability, T/C","second compound 0.0316 µM, first compound 0.1 µM",62.6%
same,"viability, T/C","second compound 0.0316 µM, first compound 0.316 µM",39.8%
same,"viability, T/C","second compound 0.0316 µM, first compound 1 µM",39.7%
same,"viability, T/C","second compound 0.0316 µM, first compound 3.16 µM",14.8%
same,"viability, T/C","second compound 0.0316 µM, first compound 10 µM",0.18%
same,"viability, T/C","second compound 0.1 µM, first compound 0.0316 µM",41.6%
same,"viability, T/C","second compound 0.1 µM, first compound 0.1 µM",42.2%
same,"viability, T/C","second compound 0.1 µM, first compound 0.316 µM",43.8%
same,"viability, T/C","second compound 0.1 µM, first compound 1 µM",34.4%
same,"viability, T/C","second compound 0.1 µM, first compound 3.16 µM",10.1%
same,"viability, T/C","second compound 0.1 µM, first compound 10 µM",0.19%
same,"viability, T/C","second compound 0.316 µM, first compound 0.0316 µM",49.4%
same,"viability, T/C","second compound 0.316 µM, first compound 0.1 µM",49%
same,"viability, T/C","second compound 0.316 µM, first compound 0.316 µM",47.7%
same,"viability, T/C","second compound 0.316 µM, first compound 1 µM",39.2%
same,"viability, T/C","second compound 0.316 µM, first compound 3.16 µM",10.8%
same,"viability, T/C","second compound 0.316 µM, first compound 10 µM",0.19%
same,"viability, T/C","second compound 1 µM, first compound 0.0316 µM",42.3%
same,"viability, T/C","second compound 1 µM, first compound 0.1 µM",45.3%
same,"viability, T/C","second compound 1 µM, first compound 0.316 µM",37.7%
same,"viability, T/C","second compound 1 µM, first compound 1 µM",31.3%
same,"viability, T/C","second compound 1 µM, first compound 3.16 µM",6.38%
same,"viability, T/C","second compound 1 µM, first compound 10 µM",0.2%
CCN1C(C(=O)NC23CCC(C(=O)O)(CC2)CC3)C(c2cccc(Cl)c2F)C2(C(=O)Nc3cc(Cl)ccc32)C12CCCCC2 (stereo not given) + CNC(C)C(=O)NC1CN(S(=O)(=O)c2cccc(S(=O)(=O)N3CCC4CCC(C(=O)NC(c5ccccc5)c5ccccc5)N4C(=O)C(NC(=O)C(C)NC)C3)c2)CCC2CCC(C(=O)NC(c3ccccc3)c3ccccc3)N2C1=O,pIC50,second compound 0.01 µM,> 8.02
same,pIC50,second compound 0.0316 µM,> 8.02
same,pIC50,second compound 0.1 µM,> 8.02
same,pIC50,second compound 0.316 µM,> 8.02
same,pIC50,second compound 1 µM,> 8.02
same,"viability, T/C","second compound 0.01 µM, first compound 0.00949 µM",33%
same,"viability, T/C","second compound 0.01 µM, first compound 0.03 µM",26.5%
same,"viability, T/C","second compound 0.01 µM, first compound 0.0949 µM",19.7%
same,"viability, T/C","second compound 0.01 µM, first compound 0.3 µM",11.7%
same,"viability, T/C","second compound 0.01 µM, first compound 0.949 µM",10.8%
same,"viability, T/C","second compound 0.01 µM, first compound 3 µM",7.5%
same,"viability, T/C","second compound 0.0316 µM, first compound 0.00949 µM",28.5%
same,"viability, T/C","second compound 0.0316 µM, first compound 0.03 µM",21.7%
same,"viability, T/C","second compound 0.0316 µM, first compound 0.0949 µM",16.3%
same,"viability, T/C","second compound 0.0316 µM, first compound 0.3 µM",11.6%
same,"viability, T/C","second compound 0.0316 µM, first compound 0.949 µM",10.3%
same,"viability, T/C","second compound 0.0316 µM, first compound 3 µM",7.98%
same,"viability, T/C","second compound 0.1 µM, first compound 0.00949 µM",20.6%
same,"viability, T/C","second compound 0.1 µM, first compound 0.03 µM",18.6%
same,"viability, T/C","second compound 0.1 µM, first compound 0.0949 µM",14.6%
same,"viability, T/C","second compound 0.1 µM, first compound 0.3 µM",13.5%
same,"viability, T/C","second compound 0.1 µM, first compound 0.949 µM",10.5%
same,"viability, T/C","second compound 0.1 µM, first compound 3 µM",8.21%
same,"viability, T/C","second compound 0.316 µM, first compound 0.00949 µM",21%
same,"viability, T/C","second compound 0.316 µM, first compound 0.03 µM",18.1%
same,"viability, T/C","second compound 0.316 µM, first compound 0.0949 µM",17.7%
same,"viability, T/C","second compound 0.316 µM, first compound 0.3 µM",14.1%
same,"viability, T/C","second compound 0.316 µM, first compound 0.949 µM",9.49%
same,"viability, T/C","second compound 0.316 µM, first compound 3 µM",10.4%
same,"viability, T/C","second compound 1 µM, first compound 0.00949 µM",19.9%
same,"viability, T/C","second compound 1 µM, first compound 0.03 µM",17.2%
same,"viability, T/C","second compound 1 µM, first compound 0.0949 µM",15.9%
same,"viability, T/C","second compound 1 µM, first compound 0.3 µM",13.7%
same,"viability, T/C","second compound 1 µM, first compound 0.949 µM",11.8%
same,"viability, T/C","second compound 1 µM, first compound 3 µM",9.28%
